# Tested on: Human immunodeficiency virus 1
# Test: Antiviral activity against HIV-1 pseudovirus infected in HEK293T cells transfected with DC-SIGN assessed as inhibition of viral entry into cells at 500 uM preincubated with compound for 2 hrs followed by viral addition and measured after 4 hrs by p24 ELISA relative to control
# Type: functional
# Settings: Human immunodeficiency virus 1, HEK-293T, time 6 hrs
smiles,measurement,value
[N-]=[N+]=NCCO[C@H]1O[C@H](CO[C@H]2O[C@H](CO)[C@@H](O)[C@H](O)[C@@H]2O[C@H]2O[C@H](CO)[C@@H](O)[C@H](O)[C@@H]2O)[C@@H](O)[C@H](O[C@H]2O[C@H](CO)[C@@H](O)[C@H](O)[C@@H]2O[C@H]2O[C@H](CO)[C@@H](O)[C@H](O)[C@@H]2O)[C@@H]1O,inhibition at 500 µM,15%
